Results: ChEMBL document CHEMBL1147371, “Les Chimanines, Nouvelles Quinoleines Substituees en 2, Isolees d'Une Plante Bolivienne Antiparasitaire: Galipea longiflora” (1993)
In brackets after ≈: the same amount, converted by molar mass.

What was measured:
Leishmania braziliensis = test: Antileishmanial activity against Leishmania braziliensis 2903; type: functional
Trypanosoma cruzi = test: Antitrypanosomal activity against Trypanosoma cruzi Tulahuen; type: functional

| SMILES | IC90 (Leishmania braziliensis) [µg/mL] | IC90 (Trypanosoma cruzi) [µg/mL] |
| --- | --- | --- |
| COc1cc(CCc2ccc3c(c2)OCO3)nc2ccccc12 [CUSPARINE] | 100 (≈ 325 µM) | 100 (≈ 325 µM) |
| COc1ccc(CCc2ccc3ccccc3n2)cc1OC | 100 (≈ 341 µM) | 100 (≈ 341 µM) |
| COc1ccc2c(OC)c3ccoc3nc2c1OC [SKIMMIANINE] | 100 (≈ 386 µM) | 100 (≈ 386 µM) |
| C[C@H]1O[C@@H]1c1ccc2ccccc2n1 (relative stereo) [CHIMANINE D] | 25 (≈ 135 µM) | 50 (≈ 270 µM) |
| N=C(N)c1ccc(OCCCCCOc2ccc(C(=N)N)cc2)cc1 [PENTAMIDINE] | 1 (≈ 2.94 µM) |  |
| CCCCCc1cc(OC)c2ccccc2n1 | 100 (≈ 436 µM) | 100 (≈ 436 µM) |
| COc1cc(-c2ccccc2)nc2ccccc12 | 50 (≈ 213 µM) | 100 (≈ 425 µM) |
| CCCCCc1ccc2ccccc2n1 | 100 (≈ 502 µM) | 100 (≈ 502 µM) |
| CCCc1ccc2ccccc2n1 | 50 (≈ 292 µM) | 50 (≈ 292 µM) |
| c1ccc2nc(CCc3ccc4c(c3)OCO4)ccc2c1 | 100 (≈ 361 µM) | 100 (≈ 361 µM) |
| O=C(Cn1ccnc1[N+](=O)[O-])NCc1ccccc1 [BENZNIDAZOLE] |  | 50 (≈ 192 µM) |
| CC1CS(=O)(=O)CCN1/N=C/c1ccc([N+](=O)[O-])o1 (configuration not stated) [NIFURTIMOX] |  | 25 (≈ 87 µM) |
| C/C=C/c1ccc2ccccc2n1 [CHIMANINE B] | 25 (≈ 148 µM) | 25 (≈ 148 µM) |
| c1ccc(-c2ccc3ccccc3n2)cc1 [2-PHENYLQUINOLINE] | 100 (≈ 487 µM) | 100 (≈ 487 µM) |
| CCCc1cc(OC)c2ccccc2n1 [CHIMANINE A] | 100 (≈ 497 µM) | 100 (≈ 497 µM) |
